The values below come from patent US20240409594A1, “PHOTOA[…] CHANNEL MODULATOR” (INSTITUT NATIONAL DE LA SANTÉ ET DE LA RECHERCHE MÉDICALE, priority 2021, published 2024).

The target of one series is Kv1.2/KCNA2 (Homo sapiens, UniProt P16389). Conditions: cited from earlier work.
For another series, the target named is shaker (Drosophila melanogaster, UniProt P08510). The settings on record: cited from earlier work.
The next series deals with Kv1.3/KCNA3 (Homo sapiens, UniProt P22001). Conditions: cited from earlier work.
For the next series, the target named is Kv1.5/KCNA5 (Homo sapiens, UniProt P22460). The settings on record: cited from earlier work.
For a further series, the target named is KCa1.1/KCNMA1 (Homo sapiens, UniProt Q12791). The settings on record: cited from earlier work.
The subject of series [1] is nicotinic acetylcholine receptors (nAChR). The settings on record: cited from earlier work.
For the next series, the target named is Kv1.6/KCNA6 (Homo sapiens, UniProt P17658). The settings on record: cited from earlier work.
The target of the next series is T1, KV1.2 (Homo sapiens, UniProt P16389).
T1 construct: expressed in transfected cells; host or cells: CHO (transient)
Kind of series: Automated patch-clamp with photocontrol, KV1.2 current in CHO cells. It counts as cell-based. Conditions: 100 nM; 365 nm, 45 mW/cm^2. For orientation: In patch-clamp work, channel activity is measured electrically.

The target in another series is T2, hNaV1.6 (Homo sapiens, UniProt Q9UQD0).
T2 construct: expressed in transfected cells
Kind of series: Automated patch-clamp and photoactivation, hNaV1.6 current in HEK293 cells. The class given is cell-based.

A further series has as its target hERG (Homo sapiens, UniProt Q12809). Put plainly: Automated patch-clamp with photocontrol, hERG current in CHO cells. The settings on record: 100 nM; 365 nm, 45 mW/cm^2.
Series [2] concerns the target human NaV1.1 channel (human) (UniProt P35498). Put plainly: cell-based or functional assay.
Series [3] has as its target human NaV1.2 channel (human) (UniProt Q99250). Put plainly: cell-based or functional assay.
Series [4] has as its target human NaV1.6 channel (human) (UniProt Q9UQD0). Kind of series: cell-based or functional assay.
The subject of a further series is zebrafish larvae. Kind of series: Zebrafish larvae paralysis model. It counts as in vivo. The settings on record: injected, then illumination.
For a further series, the target named is T3, hNaV1.2 (Homo sapiens, UniProt Q99250).
T3 construct: expressed in transfected cells
Kind of series: Automated patch-clamp and photoactivation, hNaV1.2 current in HEK293 cells. It counts as cell-based. The settings on record: 1 nM, 365 nm, 45 mW/cm^2.

T2 sequence (Q9UQD0 whole entry): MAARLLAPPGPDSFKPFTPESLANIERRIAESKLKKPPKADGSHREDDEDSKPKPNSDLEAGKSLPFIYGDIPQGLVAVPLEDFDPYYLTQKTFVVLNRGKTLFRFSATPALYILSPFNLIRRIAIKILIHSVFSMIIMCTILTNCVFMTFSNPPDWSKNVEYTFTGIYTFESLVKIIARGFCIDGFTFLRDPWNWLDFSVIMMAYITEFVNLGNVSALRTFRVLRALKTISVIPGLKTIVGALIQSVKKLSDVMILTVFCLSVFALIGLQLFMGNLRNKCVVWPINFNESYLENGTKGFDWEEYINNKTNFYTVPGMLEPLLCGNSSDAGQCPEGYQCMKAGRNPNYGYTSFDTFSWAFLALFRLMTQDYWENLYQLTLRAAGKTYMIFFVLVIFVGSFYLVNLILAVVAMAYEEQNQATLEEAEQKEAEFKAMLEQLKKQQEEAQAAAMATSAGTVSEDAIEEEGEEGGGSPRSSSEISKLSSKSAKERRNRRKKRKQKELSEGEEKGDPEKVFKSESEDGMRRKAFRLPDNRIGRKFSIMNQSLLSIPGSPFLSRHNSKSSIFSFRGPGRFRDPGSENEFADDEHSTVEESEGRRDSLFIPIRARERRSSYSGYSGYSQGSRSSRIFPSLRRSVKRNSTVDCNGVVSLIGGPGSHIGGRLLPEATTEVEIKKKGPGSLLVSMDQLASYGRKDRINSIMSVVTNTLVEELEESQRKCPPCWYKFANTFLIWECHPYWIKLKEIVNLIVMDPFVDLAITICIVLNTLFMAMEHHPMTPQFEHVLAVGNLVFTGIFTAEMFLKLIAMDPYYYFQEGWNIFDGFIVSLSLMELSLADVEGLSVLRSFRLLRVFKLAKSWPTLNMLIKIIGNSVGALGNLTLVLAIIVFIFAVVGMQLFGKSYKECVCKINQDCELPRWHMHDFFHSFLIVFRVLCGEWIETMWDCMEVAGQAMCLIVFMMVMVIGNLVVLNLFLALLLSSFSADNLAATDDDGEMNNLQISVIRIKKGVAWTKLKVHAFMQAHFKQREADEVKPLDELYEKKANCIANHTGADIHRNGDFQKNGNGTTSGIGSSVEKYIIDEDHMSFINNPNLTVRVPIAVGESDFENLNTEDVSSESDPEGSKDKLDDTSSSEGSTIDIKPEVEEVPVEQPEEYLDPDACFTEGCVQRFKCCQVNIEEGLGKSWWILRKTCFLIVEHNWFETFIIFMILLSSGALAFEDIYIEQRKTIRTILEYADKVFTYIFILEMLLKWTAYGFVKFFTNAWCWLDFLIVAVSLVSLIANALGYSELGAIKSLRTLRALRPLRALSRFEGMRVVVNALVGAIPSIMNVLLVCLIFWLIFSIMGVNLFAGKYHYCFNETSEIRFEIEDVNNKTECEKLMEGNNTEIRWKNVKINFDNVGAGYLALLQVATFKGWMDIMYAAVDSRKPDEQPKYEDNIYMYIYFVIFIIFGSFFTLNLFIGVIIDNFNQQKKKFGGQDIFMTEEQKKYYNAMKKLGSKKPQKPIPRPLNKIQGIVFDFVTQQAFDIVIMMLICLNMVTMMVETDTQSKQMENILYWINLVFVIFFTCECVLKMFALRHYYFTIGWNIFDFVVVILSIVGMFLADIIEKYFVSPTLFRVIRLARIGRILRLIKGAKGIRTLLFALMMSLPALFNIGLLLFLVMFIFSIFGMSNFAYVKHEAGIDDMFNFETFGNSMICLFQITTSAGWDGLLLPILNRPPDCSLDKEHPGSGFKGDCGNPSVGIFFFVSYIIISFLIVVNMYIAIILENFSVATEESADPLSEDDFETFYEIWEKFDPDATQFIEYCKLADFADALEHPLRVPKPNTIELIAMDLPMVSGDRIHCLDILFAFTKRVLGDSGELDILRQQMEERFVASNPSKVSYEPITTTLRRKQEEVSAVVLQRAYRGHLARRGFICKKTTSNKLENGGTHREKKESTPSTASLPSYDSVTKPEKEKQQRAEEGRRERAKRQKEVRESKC
T3 sequence (Q99250 whole entry): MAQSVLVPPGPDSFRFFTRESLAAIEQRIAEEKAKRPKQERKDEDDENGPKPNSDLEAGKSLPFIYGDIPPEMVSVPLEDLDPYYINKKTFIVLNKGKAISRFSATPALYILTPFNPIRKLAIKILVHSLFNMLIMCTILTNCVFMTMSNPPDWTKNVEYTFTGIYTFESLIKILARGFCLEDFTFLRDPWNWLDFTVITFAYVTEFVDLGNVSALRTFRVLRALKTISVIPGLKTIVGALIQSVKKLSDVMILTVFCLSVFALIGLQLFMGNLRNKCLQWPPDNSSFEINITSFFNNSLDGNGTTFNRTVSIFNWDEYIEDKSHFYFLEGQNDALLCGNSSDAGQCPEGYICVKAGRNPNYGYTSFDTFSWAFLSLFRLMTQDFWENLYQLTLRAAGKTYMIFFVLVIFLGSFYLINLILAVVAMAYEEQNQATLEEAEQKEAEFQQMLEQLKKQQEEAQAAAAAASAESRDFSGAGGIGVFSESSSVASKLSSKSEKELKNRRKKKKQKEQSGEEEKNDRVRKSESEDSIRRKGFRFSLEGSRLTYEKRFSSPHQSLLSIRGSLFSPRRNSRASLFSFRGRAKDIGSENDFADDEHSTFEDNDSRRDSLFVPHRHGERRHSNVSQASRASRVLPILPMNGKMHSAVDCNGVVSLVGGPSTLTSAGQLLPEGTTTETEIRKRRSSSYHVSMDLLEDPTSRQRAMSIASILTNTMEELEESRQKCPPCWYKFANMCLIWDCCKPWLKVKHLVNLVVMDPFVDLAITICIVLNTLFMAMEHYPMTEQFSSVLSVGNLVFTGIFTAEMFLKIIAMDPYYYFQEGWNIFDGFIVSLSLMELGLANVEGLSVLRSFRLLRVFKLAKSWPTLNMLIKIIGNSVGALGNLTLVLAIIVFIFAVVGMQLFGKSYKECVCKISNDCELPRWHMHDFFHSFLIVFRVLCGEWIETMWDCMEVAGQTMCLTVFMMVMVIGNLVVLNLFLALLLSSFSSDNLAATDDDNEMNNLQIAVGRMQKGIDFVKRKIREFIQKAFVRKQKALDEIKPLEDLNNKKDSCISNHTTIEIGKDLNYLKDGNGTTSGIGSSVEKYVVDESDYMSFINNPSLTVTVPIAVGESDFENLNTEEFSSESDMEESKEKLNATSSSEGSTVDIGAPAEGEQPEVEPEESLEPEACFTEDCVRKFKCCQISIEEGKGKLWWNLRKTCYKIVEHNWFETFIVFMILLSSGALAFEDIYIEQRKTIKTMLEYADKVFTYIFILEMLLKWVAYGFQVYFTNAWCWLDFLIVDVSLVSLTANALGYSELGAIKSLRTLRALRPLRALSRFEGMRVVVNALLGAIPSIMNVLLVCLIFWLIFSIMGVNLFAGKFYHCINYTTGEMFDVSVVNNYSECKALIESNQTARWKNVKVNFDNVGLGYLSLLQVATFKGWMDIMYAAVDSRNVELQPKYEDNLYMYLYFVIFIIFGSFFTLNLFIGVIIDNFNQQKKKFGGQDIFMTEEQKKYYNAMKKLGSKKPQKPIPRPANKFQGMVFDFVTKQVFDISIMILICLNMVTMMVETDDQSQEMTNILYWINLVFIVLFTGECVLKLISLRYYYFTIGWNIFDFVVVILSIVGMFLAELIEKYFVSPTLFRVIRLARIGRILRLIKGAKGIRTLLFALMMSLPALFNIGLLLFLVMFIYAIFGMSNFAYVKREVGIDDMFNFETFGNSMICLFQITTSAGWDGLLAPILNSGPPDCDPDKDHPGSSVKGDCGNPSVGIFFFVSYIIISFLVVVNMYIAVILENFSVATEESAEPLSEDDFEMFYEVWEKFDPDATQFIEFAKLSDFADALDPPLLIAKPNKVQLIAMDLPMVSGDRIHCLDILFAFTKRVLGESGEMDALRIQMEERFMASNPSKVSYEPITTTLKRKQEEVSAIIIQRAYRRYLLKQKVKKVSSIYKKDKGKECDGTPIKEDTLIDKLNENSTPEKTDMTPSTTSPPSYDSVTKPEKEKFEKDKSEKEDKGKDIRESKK
Sequence of human NaV1.6 channel (human) (Q9UQD0 whole entry): as the sequence (Q9UQD0 whole entry) above
Sequence of Kv1.5/KCNA5 (P22460 whole entry): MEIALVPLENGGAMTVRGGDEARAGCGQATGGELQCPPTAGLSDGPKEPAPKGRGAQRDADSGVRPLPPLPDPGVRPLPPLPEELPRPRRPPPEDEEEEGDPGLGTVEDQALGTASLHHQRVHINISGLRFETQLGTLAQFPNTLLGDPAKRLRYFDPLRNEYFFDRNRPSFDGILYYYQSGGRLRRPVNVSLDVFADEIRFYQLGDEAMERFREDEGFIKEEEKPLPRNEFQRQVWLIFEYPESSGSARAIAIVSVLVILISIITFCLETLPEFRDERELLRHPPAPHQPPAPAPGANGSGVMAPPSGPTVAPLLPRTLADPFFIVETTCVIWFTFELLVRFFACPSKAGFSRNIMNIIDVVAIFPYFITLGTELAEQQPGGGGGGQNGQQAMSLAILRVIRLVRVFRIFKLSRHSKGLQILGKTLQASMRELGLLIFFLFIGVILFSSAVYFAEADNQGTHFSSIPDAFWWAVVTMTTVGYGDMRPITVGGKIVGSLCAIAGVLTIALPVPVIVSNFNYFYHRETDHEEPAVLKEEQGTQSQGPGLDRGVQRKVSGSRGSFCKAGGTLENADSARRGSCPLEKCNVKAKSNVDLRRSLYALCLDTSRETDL
Sequence of Kv1.2/KCNA2 (P16389 whole entry): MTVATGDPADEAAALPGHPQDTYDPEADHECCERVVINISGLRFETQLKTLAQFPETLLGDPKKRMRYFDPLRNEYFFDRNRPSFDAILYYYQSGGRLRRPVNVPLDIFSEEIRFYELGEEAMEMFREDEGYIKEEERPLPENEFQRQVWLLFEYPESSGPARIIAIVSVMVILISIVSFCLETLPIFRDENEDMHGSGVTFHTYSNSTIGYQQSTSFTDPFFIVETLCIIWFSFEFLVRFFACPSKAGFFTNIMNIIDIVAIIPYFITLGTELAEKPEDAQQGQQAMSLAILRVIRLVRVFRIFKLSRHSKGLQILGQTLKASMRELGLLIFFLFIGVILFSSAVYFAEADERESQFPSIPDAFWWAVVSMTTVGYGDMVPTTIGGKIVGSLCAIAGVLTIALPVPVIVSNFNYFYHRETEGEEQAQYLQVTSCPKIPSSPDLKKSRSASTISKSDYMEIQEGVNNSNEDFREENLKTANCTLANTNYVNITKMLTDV

As usually defined, the Ki is a dissociation constant, usually derived from enzyme kinetics or from competition with a known ligand. For orientation: Kd means the equilibrium constant for the complex coming apart. One may read the IC50 as the concentration needed to halve the response being measured. Turning to “QFTNVSCTTSKECWSVCQRLHNTSRGKCMNKKCRCYS [Charybdotoxin]”, the “Inhibition of Kv1.2/KCNA2” value on Kv1.2/KCNA2 is listed as “nanomolar range”. In addition, the results for the Ki on shaker and on Kv1.6/KCNA6 were 227 nM and 22 nM, respectively. Also, the “Inhibition of Kv1.3/KCNA3” value on Kv1.3/KCNA3 is recorded as “nanomolar range”. Further, the Kd at Kv1.5/KCNA5 is greater than 100 nM. Further, the half-maximal inhibitory concentration (IC50) at KCa1.1/KCNMA1 is 5.9 nM. In addition, in [1], the “Interaction with nicotinic acetylcholine receptors” value is reported as “weak interaction”.
On to charybdotoxin-Nvoc, for which the “UV-dependent effect on KV1.2 current after uncaging” value with KV1.2 is given as “block”.
For `CC[C@H](C)[C@@H]1NC(=O)CNC(=O)[C@H](CC(C)C)NC(=O)[C@@H](NC(=O)CN)CSSC[C@@H]2NC(=O)[C@@H]3CSSC[C@@H](C(=O)N[C@@H](CCCCN)C(=O)N[C@@H](Cc4ccc(O)cc4)C(=O)N[C@@H](CCC(N)=O)C(=O)N[C@H](C(=O)N[C@@H](CCCCN)C(N)=O)[C@@H](C)CC)NC(=O)[C@H](Cc4c[nH]c5ccccc45)NC(=O)[C@H](CCCNC(=N)N)NC(=O)[C@H]([C@@H](C)O)NC(=O)[C@H](CCCCN)NC(=O)[C@H](CCCNC(=N)N)NC(=O)[C@H](CO)NC(=O)[C@H](CSSC[C@H](NC(=O)[C@H](C)NC(=O)[C@H](CCCCN)NC(=O)[C@H](Cc4ccccc4)NC1=O)C(=O)N[C@@H](CC(N)=O)C(=O)N1CCC[C@H]1C(=O)N[C@@H](CO)C(=O)N[C@@H](CC(N)=O)C(=O)N[C@@H](CC(=O)O)C(=O)N[C@@H](CCC(N)=O)C(=O)N3)NC(=O)[C@H](C(C)C)NC(=O)[C@H](CC(C)C)NC(=O)[C@H](CCCCN)NC(=O)[C@H](CO)NC(=O)[C@H](CO)NC(=O)[C@H](CCCCN)NC2=O` [uncaged HwTxIV-Nvoc], the IC50 on hNaV1.6 (FIG. 2a / FIG. 3f series, caged vs non-caged vs uncaged, holding −100 mV, read-out: IC50 NaV1.6 current inhibition) was 15.2 nM.
“BeKm1-Nvoc: BeKm1 (hERG blocker) caged with a Nvoc protecting group (RPTDIKCSESYQCFPVCKSRFGKTNGRCVNGFCDCF)”: the “UV-dependent effect on hERG current after uncaging” value with hERG was “block”. Moreover, in the series with hNaV1.6 (by-product from uncaging 100 nM, negative control), the “Effect of Nvoc photolysis by-product on NaV1.6” value is “inert”.
The molecule “HwTxIV analog (HwTxIVG^1G^4K^36) (peptide)” came in with an IC50 of hNaV1.1 current inhibition in series [2] of 3.6 nM. Further, the IC50 of hNaV1.2 current inhibition in series [3] was determined as 3.23 nM. In [4], this molecule displayed an IC50 of NaV1.6 current inhibition of 22.4 nM.
Take “AaHII-R^62K-Nvoc: Nvoc-grafted analogue of AaHII wherein Arg62 was replaced by Lys62”: in the series on zebrafish larvae, the “Paralysis of zebrafish larvae after illumination” value is given as “paralysis in all larvaes”. Further, the “UV-dependent effect on hNaV1.2 current after uncaging” value was “slowing of inactivation” in the series with hNaV1.2 and “activation” with hNaV1.2 (listed as AaHIIR^62K-Nvoc).
